Read-outs that look alike come from different tables or passages of the source.
Experiments:
P-388 = assay: Inhibition of cell growth by counting cells, P-388; assay type: cell-based, mouse; conditions: Mus musculus, P388, 72 h; three days of incubation; read-out: IC50 (molar) P-388
Procedure: (§1) 1°.—Inhibition of Cell Growth by Counting Cells.
(§2) This form of the assay employs 24 well multidishes of 16 mm diameter (Bergeron, 1984; Schroeder, 1981). The tumor cell lines employed are: P-388 (ATCC CCL 46), suspension culture of a lymphoid neoplasm from a DBA/2 mouse; A-549 (ATCC CCL 185), monolayer culture of a human lung carcinoma; HT-29 (ATCC HTB-38), monolayer culture of a human colon carcinoma; MEL-28 (ATCC HTB-72), monolayer culture of a human melanoma and DU-145 (ATCC HTB-81), monolayer culture of a human prostate carcinoma.
(§3) Cells were maintained, in logarithmic phase of growth in Eagle's Minimum Essential Medium, with Earle's Balanced Salts, with non-essential amino acids, with 2.0 mM L-Glutamine, without sodium bicarbonate (EMEM/neaa), supplemented with 10% Fetal Calf Serum (FCS), 10^−2 M. sodium bicarbonate and 0.1 U/l penicillin G+0.1 g/l streptomycin sulfate. For the experiments, cells are harvested from subconfluent cultures using trypsin and resuspended in fresh medium before plating.
(§4) P-388 cells were seeded into 16 mm diameter wells at 1×10^4 cells per well in 1 ml aliquots of EMEM 5% FCS containing different concentrations of the sample to be tested. A separate set of cultures without drug was seeded as control of growth, to ensure that cells remained in exponential phase of growth. All determinations are carrying out in duplicate.
(§5) For quantifying the activity, after the incubation time, cells are trypsinized and counted in a Coulter Counter ZM. All counts (net cells per well), represent the average of duplicate wells. % G, percent of growth relative to cultures without drug. The results of these assays are used to generate dose-response curves from which more precise IC50 values are determined (sample concentration which produces 50% cell growth inhibition).
(§6) Obtained results may predict the usefulness of a certain drug as a potential cancer treatment. For this technique, compounds which show IC50 values smaller than 1 μg/ml are selected to continue with further studies. IC50's data allow to predict that not only could a drug be cystostatic, but also it could have a potential in terms of tumor reduction.

A-549 = assay: Inhibition of cell growth by counting cells, A-549; assay type: cell-based, human; conditions: three days of incubation, read-out: IC50 (molar) A-549
Procedure: as §1, §2, §3
as §4, with “A-549, HT-29, MEL-28 and DU-145” for “P-388”, “duplicate. After three days of incubation at 37° C., 5% CO2 in a 98% humid atmosphere cells were stained with 0.1% crystal violet. An approximately IC50 was determined by comparing the growth in wells with drug to the growth in wells control.” for “duplicate.”
as §5, §6

HT-29 = assay: Inhibition of cell growth by counting cells, HT-29; assay type: cell-based, human; conditions: three days of incubation, read-out: IC50 (molar) HT-29
Procedure: as §1, §2, §3
as §4, with “A-549, HT-29, MEL-28 and DU-145” for “P-388”, “duplicate. After three days of incubation at 37° C., 5% CO2 in a 98% humid atmosphere cells were stained with 0.1% crystal violet. An approximately IC50 was determined by comparing the growth in wells with drug to the growth in wells control.” for “duplicate.”
as §5, §6

MEL-28 = assay: Inhibition of cell growth by counting cells, MEL-28; assay type: cell-based, human; conditions: Homo sapiens, SK-MEL-28, 72 h; three days of incubation; read-out: IC50 (molar) MEL-28
Procedure: as §1, §2, §3
as §4, with “A-549, HT-29, MEL-28 and DU-145” for “P-388”, “duplicate. After three days of incubation at 37° C., 5% CO2 in a 98% humid atmosphere cells were stained with 0.1% crystal violet. An approximately IC50 was determined by comparing the growth in wells with drug to the growth in wells control.” for “duplicate.”
as §5, §6

Row | SMILES | IC50 (P-388) [nM] | IC50 (A-549; Homo sapiens, A549, 72 h) [nM] | IC50 (HT-29; Homo sapiens, HT-29, 72 h) [nM] | IC50 (MEL-28) [nM] | IC50 (A-549) [nM] | IC50 (HT-29) [nM]
1 | COc1cc2c(cc1OC(C)=O)CCN[C@]21CS[C@@H]2c3c(OC(C)=O)c(C)c4c(c3[C@H](COC1=O)N1C2[C@H]2c3c(cc(C)c(OC)c3O)C[C@@H]([C@@H]1C#N)N2C)OCO4 (stereo partly drawn) [Compound 2] | 0.148 | 0.148 | 0.148 | 0.148 | – | –
2 | COc1cc2c(cc1OC(C)=O)CCN[C@]21CS[C@@H]2c3c(OC(C)=O)c(C)c4c(c3[C@H](COC1=O)N1C2[C@H]2c3c(cc(C)c(OC)c3OC(C)=O)C[C@@H]([C@@H]1C#N)N2C)OCO4 (stereo partly drawn) [Compound 6] | 1.41 | 2.93 | 2.93 | 2.93 | – | –
3 | C=CCOC(=O)Oc1cc2c(cc1OC)[C@@]1(CS[C@@H]3c4c(OC(C)=O)c(C)c5c(c4[C@H](COC1=O)N1C3[C@H]3c4c(cc(C)c(OC)c4O)C[C@@H]([C@@H]1C#N)N3C)OCO5)NCC2 (stereo partly drawn) [Compound 25] | 0.141 | 0.141 | 0.141 | 0.141 | – | –
4 | C=CCOC(=O)Oc1cc2c(cc1OC)[C@@]1(CS[C@@H]3c4c(OC(C)=O)c(C)c5c(c4[C@H](COC1=O)N1C3[C@H]3c4c(cc(C)c(OC)c4OC(=O)OCC=C)C[C@@H]([C@@H]1C#N)N3C)OCO5)NCC2 (stereo partly drawn) [Compound 26] | 5.33 | 5.33 | 5.33 | 5.33 | – | –
5 | CCOc1c(C)c2c(c3c1[C@H]1SC[C@]4(NCCc5cc(O)c(OC)cc54)C(=O)OC[C@@H]3N3C1[C@H]1c4c(cc(C)c(OC)c4O)C[C@@H]([C@@H]3C#N)N1C)OCO2 (stereo partly drawn) [Compound 151] | – | 0.132 | 0.132 | – | – | –
6 | CCOc1c(C)c2c(c3c1[C@H]1SC[C@]4(NCCc5cc(O)c(OC)cc54)C(=O)OC[C@@H]3N3C1[C@H]1c4c(cc(C)c(OC)c4OCC)C[C@@H]([C@@H]3C#N)N1C)OCO2 (stereo partly drawn) [Compound 152] | – | 12.8 | 12.8 | – | – | –
7 | CCCOc1c(C)c2c(c3c1[C@H]1SC[C@]4(NCCc5cc(O)c(OC)cc54)C(=O)OC[C@@H]3N3C1[C@H]1c4c(cc(C)c(OC)c4O)C[C@@H]([C@@H]3C#N)N1C)OCO2 (stereo partly drawn) [Compound 153] | – | – | – | – | 0.13 | 0.13
8 | C=CCOc1c(C)c2c(c3c1[C@H]1SC[C@]4(NCCc5cc(O)c(OC)cc54)C(=O)OC[C@@H]3N3C1[C@H]1c4c(cc(C)c(OC)c4O)C[C@@H]([C@@H]3C#N)N1C)OCO2 (stereo partly drawn) [Compound 155] | – | 1.3 | 1.3 | – | – | –
9 | C=CCOc1c(C)c2c(c3c1[C@H]1SC[C@]4(NCCc5cc(O)c(OC)cc54)C(=O)OC[C@@H]3N3C1[C@H]1c4c(cc(C)c(OC)c4OCC=C)C[C@@H]([C@@H]3C#N)N1C)OCO2 (stereo partly drawn) [Compound 156] | – | 12.4 | 12.4 | – | – | –
10 | COc1cc2c(cc1O)CCN[C@]21CS[C@@H]2c3c(OCc4ccccc4)c(C)c4c(c3[C@H](COC1=O)N1C2[C@H]2c3c(cc(C)c(OC)c3O)C[C@@H]([C@@H]1C#N)N2C)OCO4 (stereo partly drawn) [Compound 157] | – | 0.122 | 0.122 | – | – | –
11 | COc1cc2c(cc1O)CCN[C@]21CS[C@@H]2c3c(OCc4ccccc4)c(C)c4c(c3[C@H](COC1=O)N1C2[C@H]2c3c(cc(C)c(OC)c3OCc3ccccc3)C[C@@H]([C@@H]1C#N)N2C)OCO4 (stereo partly drawn) [Compound 158] | – | 1.1 | 1.1 | – | – | –
12 | COc1cc2c(cc1O)CCN[C@]21CS[C@@H]2c3c(OC(=O)C(F)(F)F)c(C)c4c(c3[C@H](COC1=O)N1C2[C@H]2c3c(cc(C)c(OC)c3OC(=O)C(F)(F)F)C[C@@H]([C@@H]1C#N)N2C)OCO4 (stereo partly drawn) [Compound 160] | – | 1.09 | 1.09 | – | – | –
13 | COc1cc2c(cc1O)CCN[C@]21CS[C@@H]2c3c(OC(=O)/C=C/c4ccccc4)c(C)c4c(c3[C@H](COC1=O)N1C2[C@H]2c3c(cc(C)c(OC)c3OC(=O)/C=C/c3ccccc3)C[C@@H]([C@@H]1O)N2C)OCO4 (stereo partly drawn) [Compound 162] | – | 5.1 | 5.1 | – | – | –
14 | CCCC(=O)Oc1c(C)c2c(c3c1[C@H]1SC[C@]4(NCCc5cc(O)c(OC)cc54)C(=O)OC[C@@H]3N3C1[C@H]1c4c(cc(C)c(OC)c4OC(=O)CCC)C[C@@H]([C@@H]3O)N1C)OCO2 (stereo partly drawn) [Compound 164] | – | 11.6 | 11.6 | – | – | –
15 | CCCCCCCC(=O)Oc1c(C)c2c(c3c1[C@H]1SC[C@]4(NCCc5cc(O)c(OC)cc54)C(=O)OC[C@@H]3N3C1[C@H]1c4c(cc(C)c(OC)c4OC(=O)CCCCCCC)C[C@@H]([C@@H]3O)N1C)OCO2 (stereo partly drawn) [Compound 169] | – | 1.03 | 1.03 | – | – | –
16 | CCOc1c(C)c2c(c3c1[C@H]1SC[C@]4(NCCc5cc(O)c(OC)cc54)C(=O)OC[C@@H]3N3C1[C@H]1c4c(cc(C)c(OC)c4O)C[C@@H]([C@@H]3O)N1C)OCO2 (stereo partly drawn) [Compound 177] | – | 0.134 | 0.134 | – | – | –
17 | CCCOc1c(C)c2c(c3c1[C@H]1SC[C@]4(NCCc5cc(O)c(OC)cc54)C(=O)OC[C@@H]3N3C1[C@H]1c4c(cc(C)c(OC)c4O)C[C@@H]([C@@H]3O)N1C)OCO2 (stereo partly drawn) [Compound 178] | – | 1.31 | 1.31 | – | – | –
18 | C=CCOc1c(C)c2c(c3c1[C@H]1SC[C@]4(NCCc5cc(O)c(OC)cc54)C(=O)OC[C@@H]3N3C1[C@H]1c4c(cc(C)c(OC)c4OCC=C)C[C@@H]([C@@H]3O)N1C)OCO2 (stereo partly drawn) [Compound 179] | – | 12.5 | 12.5 | – | – | –
19 | COc1cc2c(cc1O)CCN[C@]21CS[C@@H]2c3c(OCc4ccccc4)c(C)c4c(c3[C@H](COC1=O)N1C2[C@H]2c3c(cc(C)c(OC)c3O)C[C@@H]([C@@H]1O)N2C)OCO4 (stereo partly drawn) [Compound 180] | – | 0.618 | 0.618 | – | – | –
20 | COc1cc2c(cc1O)CCN[C@]21CS[C@@H]2c3c(OCc4ccccc4)c(C)c4c(c3[C@H](COC1=O)N1C2[C@H]2c3c(cc(C)c(OC)c3OCc3ccccc3)C[C@@H]([C@@H]1O)N2C)OCO4 (stereo partly drawn) [Compound 181] | – | 11.1 | 11.1 | – | – | –
21 | CCCCCCCC(=O)Oc1cc2c(cc1OC)[C@@]1(CS[C@@H]3c4c(OC(C)=O)c(C)c5c(c4[C@H](COC1=O)N1C3[C@@H]3N[C@@H](Cc4cc(C)c(OC)c(OC(=O)CCCCCCC)c43)[C@@H]1O)OCO5)NCC2 (stereo partly drawn) [Compound 214] | – | 5 | 5 | – | – | –
22 | CCCCCCCCCCCCCCCC(=O)Oc1cc2c(cc1OC)[C@@]1(CS[C@@H]3c4c(OC(C)=O)c(C)c5c(c4[C@H](COC1=O)N1C3[C@@H]3N[C@@H](Cc4cc(C)c(OC)c(OC(=O)CCCCCCCCCCCCCCC)c43)[C@@H]1O)OCO5)NCC2 (stereo partly drawn) [Compound 216] | – | 81.6 | 81.6 | – | – | –
23 | COc1cc2c(cc1O)CCN[C@]21CS[C@@H]2c3c(OC(C)=O)c(C)c4c(c3[C@H](COC1=O)N1C2[C@H]2c3c(cc(C)c(O)c3O)C[C@@H]([C@@H]1O)N2C)OCO4 (stereo partly drawn) [Compound 221] | – | 1.34 | 1.34 | – | – | –
